Results on 5 compounds are retold here after patent US20080138437A1, “Antitumor Agent” (priority 2004, published 2008).

Where a name gives a salt, the structure may show the parent alone. Read-outs that look alike come from different tables or passages of the source.

Data set [1] relates to 15 types of human cancer cells. Briefly: Cell growth inhibition test, MTT, average GI 50. Particulars: average of 15 human cancer cell types, 48 hours exposure. It is filed as cell-based. As for the experimental part: Appropriate amounts of each of the human cancer cells suspended in 5% fetal bovine serum-supplemented medium were plated into a 96-well plate, and allowed to adhere to the wells in a 37° C. CO2 incubator overnight.
These cancer cells were exposed to each anticancer agent for 48 hours. Cell growth was assayed by MTT. Absorbance of the control well (C) and the test well (T) was measured at 550 nm.
The absorbance of the test well immediately after adding the drug (TO) was also measured. Using these measured values, GI 50 of each drug was calculated, and the drug concentration at that time was obtained. For comparison, a similar test was performed for each of the anticancer agents (Comparative Tests 4-1 to 4-7).

In the next data set the test system is A549 lung cancer cells. Nature of the data set: Antitumor test, transplanted tumor in nude mice. It counts as in vivo, human. The following applies: control, drug without hydroxyapatite adsorption. An excerpt: (§1) (Experimental Test 5-1 to 5-5).
(§2) Female nude mice (7 weeks old, 16 to 22 g) with a BALB/c genetic background were used for the tests. Human cancer cells used for the tests were GCIY stomach cancer cells, HCT-15 colon cancer cells, A549 lung cancer cells, and OVCAR-3 ovarian cancer cells. Human cancer cells were subcutaneously transplanted into nude mice, tumor lumps were formed, and these carcinomas were used for the tests.
(§3) Aseptically collected tumors were sliced into tumors of 3×3×3 mm, and then subcutaneously transplanted into a new nude mouse. When the tumors reached a volume of 100 to 300 mm^3, the animals were arbitrarily divided into groups of six (Day 0). […] Intravascular administration was the administration route for all.
(§4) After administration, between Days 24 to 31, the length (L) and width (W) of the tumor lump of the animal were measured twice a week, and the tumor volume (TV) was calculated according to the following formula: TV=(L×W^2)/2. Antitumor effect was determined at Day 14. The relative tumor volume (RTV) was obtained by the following formula: RTV=TV14/TV0, using values of the tumor volume at Day 0 and Day 14 (referred to as TV0 and TV14). Antitumor effect was evaluated as the tumor regression rate at Day 14 (T/C%). Herein, T/C %=100×(average RTV of the treated group)/(RTV of the control group).
(§5) As a control, each drug was tested without hydroxyapatite adsorption (Comparative Tests 5-10 to 5-14).

The subject of data set [2] is GCIY stomach cancer cells. Nature of the data set: Antitumor test, transplanted tumor in nude mice. It counts as in vivo, human. Particulars: control, drug without hydroxyapatite adsorption.
Text: as §1, §2, §3, §4, §5

For data set [3], the system named is HCT-15 colon cancer cells. Nature of the data set: Antitumor test, transplanted tumor in nude mice. It counts as in vivo, human. The following applies: control, drug without hydroxyapatite adsorption.
Text: as §1, §2, §3, §4, §5

In data set [4] the test system is OVCAR-3 ovarian cancer cells. Briefly: Antitumor test, transplanted tumor in nude mice. It is filed as in vivo, human. The following applies: control, drug without hydroxyapatite adsorption.
Text: as §1, §2, §3, §4, §5

In another data set the test system is C57BL/6 male mouse. The following applies: one-time, 14 days observation.
Data set [5] can be described thus: in vivo. Particulars: male, C57BL/6, mouse.
Data set [6] is described as follows: in vivo. Particulars: BDF1, mouse, sc.
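For deaths versus administered animals in this document: mice given a single dose and followed for 14 days, with deaths tallied, LD50 derived from the doses given and the resulting death counts.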

A word on the GI50: it is the concentration giving 50% growth inhibition. A higher GI50 goes with lower sensitivity of the cells. One may read the LD50 as the dose at which mortality reaches 50%. Read a low LD50 as greater toxicity. In data set [1], `O=c1[nH]cc(F)c(=O)[nH]1` [Fluorouracil] showed a 50% growth inhibitory concentration (GI50) of 36800 nM. For the same compound, the “Regression rate of transplanted cancer (T/C %) at Day 14” value (“Regression rate … (T/C %) at Day 14” for short) turned out to be 117% in the data set with A549 lung cancer cells, 69% in data set [2], 59% in data set [3] and 74% in data set [4]. Besides, the “deaths versus administered animals” value in the data set with C57BL/6 male mouse (50 mg/kg intravascular) was 0/5; in the data set on C57BL/6 male mouse (100 mg/kg intravascular) it was 1/5; with C57BL/6 male mouse (150 mg/kg intravascular) it was 1/5; in the data set on C57BL/6 male mouse (200 mg/kg intravascular), 2/5; in the data set with C57BL/6 male mouse (250 mg/kg intravascular) it was 2/6; with C57BL/6 male mouse (300 mg/kg intravascular), 3/5. For the same compound, the “deaths versus administered animals” value with C57BL/6 male mouse (350 mg/kg intravascular) is reported as 5/6; with C57BL/6 male mouse (400 mg/kg intravascular), 6/6. The same compound yielded an LD50 in the data set “in vivo [5]” of 244 mg/kg.
On to `COc1cc([C@@H]2c3cc4c(cc3[C@@H](O[C@@H]3O[C@@H]5CO[C@@H](C)O[C@H]5[C@H](O)[C@H]3O)[C@H]3COC(=O)[C@H]23)OCO4)cc(OC)c1O` [Etoposide], for which, in data set [1], the concentration for 50% growth inhibition (GI50) is 5110 nM. The “Regression rate … (T/C %) at Day 14” value with A549 lung cancer cells came to 72%; in data set [2], 93%; in data set [3] it was 67%; in data set [4] it was 76%. For the same compound, the “deaths versus administered animals” value is recorded as 0/6 in the data set with C57BL/6 male mouse (10 mg/kg intravascular); 1/6 in the data set with C57BL/6 male mouse (20 mg/kg intravascular); 2/6 in the data set with C57BL/6 male mouse (30 mg/kg intravascular); 5/7 in the data set with C57BL/6 male mouse (40 mg/kg intravascular); 5/6 in the data set with C57BL/6 male mouse (50 mg/kg intravascular); 6/6 with C57BL/6 male mouse (60 mg/kg intravascular). Further, the LD50 in “in vivo [5]” worked out at 32.7 mg/kg; in the data set “in vivo [5]” (po), 220 mg/kg.
In data set [1], `CC[C@]1(O)C[C@H]2CN(CCc3c([nH]c4ccccc34)[C@@](C(=O)OC)(c3cc4c(cc3OC)N(C=O)[C@H]3[C@@](O)(C(=O)OC)[C@H](OC(C)=O)[C@]5(CC)C=CCN6CC[C@]43[C@@H]65)C2)C1` [Vincristine sulfate] showed a GI50 of 3.6 nM. Moreover, the “Regression rate … (T/C %) at Day 14” value in the data set with A549 lung cancer cells is listed as 76%; in data set [2] it was 81%; in data set [3], 101%; in data set [4], 79%. Besides, the “deaths versus administered animals” value in the data set with C57BL/6 male mouse (1.0 mg/kg intravascular) is listed as 0/5; in the data set with C57BL/6 male mouse (1.5 mg/kg intravascular), 2/5; in the data set with C57BL/6 male mouse (2.0 mg/kg intravascular), 3/8; in the data set with C57BL/6 male mouse (3.0 mg/kg intravascular), 7/8; with C57BL/6 male mouse (3.5 mg/kg intravascular) it was 8/8. The same compound gave a median lethal dose (LD50) in “in vivo [5]” of 1.98 mg/kg.
`COc1cccc2c1C(=O)c1c(O)c3c(c(O)c1C2=O)C[C@@](O)(C(=O)CO)C[C@@H]3O[C@H]1C[C@H](N)[C@H](O)[C@H](C)O1` [Doxorubicin] showed a GI50 in data set [1] of 72 nM. In the data set “in vivo [6]”, this compound had an LD50 of 10 mg/kg.
`Cc1ncc(CNC(=O)N(CCCl)N=O)c(N)n1` [Nimustine hydrochloride] yielded an LD50 in “in vivo [6]” of 50 mg/kg.
